Common to all, as to assay type: functional, cell-based
One test deals with CCRF-CEM. In words: Cytotoxicity evaluated against CEM tumor cell lines; Significant activity. To be noted: Homo sapiens.
Another test has as its system WIL2. In words: Cytotoxicity evaluated against WIL2 tumor cell lines; Significant activity. Particulars: Homo sapiens.
In the next test the test system is NCI-H596. Briefly: Cytotoxicity evaluated against H596 tumor cell lines; Significant activity. To be noted: Homo sapiens.
The subject of the next test is A549. Briefly: Cytotoxicity evaluated against A549 tumor cell lines; significant activity. To be noted: Homo sapiens.
Another test relates to MCF7. In words: Cytotoxicity evaluated against MCF-7 tumor cell lines; Significant activity. Particulars: Homo sapiens.
The next test relates to MOLT-4. In words: Cytotoxicity was evaluated against Molt-4 tumor cell lines. Particulars: Homo sapiens.
The subject of a further test is NCI-H292. In words: Cytotoxicity evaluated against H292 tumor cell lines; Significant activity. Particulars: Homo sapiens.
In another test the test system is HL-60. Briefly: Cytotoxicity evaluated against HL-60 tumor cell lines; Significant activity. Particulars: Homo sapiens.
A further test relates to WI-38. Briefly: Cytotoxicity evaluated against WI38 tumor cell lines; Significant activity. To be noted: Homo sapiens.
A further test has as its system K562. In words: Cytotoxicity evaluated against K562 tumor cell lines; Significant activity. Particulars: Homo sapiens.
The next test deals with B16. Briefly: Cytotoxicity was evaluated against B16 tumor cell lines; Significant activity. To be noted: Mus musculus.
A further test relates to Jurkat. In words: In vitro test for antitumor activity against human Jurkat cell line using a formazan dye (MTT) conversion assay.
A further test relates to L1210. In words: Cytotoxicity evaluated against L1210 tumor cell lines; Significant activity. To be noted: Mus musculus.
The next test concerns NIH3T3. In words: Cytotoxicity evaluated against NIH3T3 tumor cell lines; Significant activity. Particulars: Mus musculus.

SMILES strings stand for the structures.

The term IC50 denotes the concentration that inhibits the measured activity by half. Low values mean greater potency, high ones weaker potency. Regarding `COc1cc2c(cc1OC)C(=O)/C(=C/c1cc([N+](=O)[O-])cc([N+](=O)[O-])c1)CC2`, the Cytotoxicity entry in the test with CCRF-CEM, in the test on WIL2, in the test with NCI-H596, in the test with A549, in the test with MCF7 and with MOLT-4 was “Significant activity” throughout. The Cytotoxicity entry in the test on NCI-H292, in the test with HL-60, in the test on WI-38, in the test on K562, with B16 and in the test with L1210 was “Significant activity” each time. The Cytotoxicity result with NIH3T3 is “Significant activity”. The half-maximal inhibitory concentration (IC50) in the test on Jurkat amounted to 2 µM.
For `COc1cc2c(cc1OC)C(=O)/C(=C/c1ccc(O)cc1)CC2`, the Cytotoxicity entry in the test on CCRF-CEM, in the test with WIL2, in the test with NCI-H596, in the test with A549, in the test with MCF7 and in the test with MOLT-4 was “Significant activity” each time. The Cytotoxicity result in the test on NCI-H292, with HL-60, in the test on WI-38, in the test with K562, in the test on B16 and in the test on L1210 was “Significant activity” each time. For the same compound, the Cytotoxicity result with NIH3T3 is “Significant activity”. In the test on Jurkat, this compound came in with an IC50 of 19 µM.
Consider `COc1cc2c(cc1OC)C(=O)/C(=C/c1cc(I)cc(I)c1O)C2`, for which the Cytotoxicity entry in the test on CCRF-CEM, with WIL2, with NCI-H596, in the test with A549, with MCF7 and with MOLT-4 was “Significant activity” each time. The Cytotoxicity result with NCI-H292, in the test on HL-60, in the test with WI-38, with K562, in the test on B16 and with L1210 was “Significant activity” each time. The Cytotoxicity entry in the test with NIH3T3 is “Significant activity”. In the test with Jurkat, this compound had an IC50 of 2.5 µM.
Turning to `COc1cc2c(cc1OC)C(=O)/C(=C/c1cc([N+](=O)[O-])ccc1O)C2`, the Cytotoxicity result in the test on CCRF-CEM, with WIL2, in the test on NCI-H596, in the test on A549, in the test with MCF7 and with MOLT-4 was “Significant activity” each time. Also, the Cytotoxicity result in the test with NCI-H292, in the test on HL-60, with WI-38, in the test with K562, with B16 and in the test on L1210 was “Significant activity” each time. The Cytotoxicity result in the test with NIH3T3 was “Significant activity”. In the test with Jurkat, this compound registered a concentration for half-maximal inhibition (IC50) of 14.5 µM.
With `COc1cc2c(cc1OC)C(=O)/C(=C/c1cc(C)c(O)c(C)c1)CC2`, the Cytotoxicity result in the test on CCRF-CEM, with WIL2, with NCI-H596, in the test on A549, in the test with MCF7 and in the test on MOLT-4 was “Significant activity” in each case. Moreover, the Cytotoxicity result in the test with NCI-H292, in the test with HL-60, with WI-38, in the test with K562, in the test with B16 and with L1210 was “Significant activity” throughout. Moreover, in the test with NIH3T3, the Cytotoxicity entry was “Significant activity”. In addition, the half-maximal inhibitory concentration (IC50) in the test with Jurkat worked out at 4.8 µM.
For `COc1cc2c(cc1OC)C(=O)/C(=C/c1cc(C)c(OCC(=O)O)c(C)c1)C2`, the Cytotoxicity result in the test with CCRF-CEM, with WIL2, in the test with NCI-H596, with A549, with MCF7 and in the test with MOLT-4 was “Significant activity” each time. Besides, the Cytotoxicity entry in the test with NCI-H292, in the test on HL-60, with WI-38, with K562, in the test with B16 and in the test on L1210 was “Significant activity” throughout. Moreover, the Cytotoxicity result in the test on NIH3T3 is “Significant activity”. Also, the IC50 with Jurkat is 6.3 µM.
Turning to `COc1cc2c(cc1OC)C(=O)/C(=C/c1cc(C)c(N)c(C)c1)C2`, the Cytotoxicity result in the test with CCRF-CEM, in the test with WIL2, in the test on NCI-H596, with A549, with MCF7 and with MOLT-4 was “Significant activity” in each case. Moreover, the Cytotoxicity entry in the test with NCI-H292, in the test with HL-60, in the test on WI-38, in the test with K562, with B16 and in the test with L1210 was “Significant activity” throughout. For the same compound, in the test with NIH3T3, the Cytotoxicity entry was “Significant activity”. In addition, in the test with Jurkat, half-maximal inhibition (IC50) was put at 0.055 µM.
As for `COc1cc2c(cc1OC)C(=O)/C(=C/c1cc(Cl)cc(Cl)c1)CC2`, the Cytotoxicity entry in the test on CCRF-CEM, with WIL2, in the test with NCI-H596, in the test with A549, in the test on MCF7 and in the test with MOLT-4 was “Significant activity” each time. Besides, the Cytotoxicity entry in the test on NCI-H292, in the test with HL-60, in the test on WI-38, in the test on K562, with B16 and in the test with L1210 was “Significant activity” in each case. In addition, in the test with NIH3T3, the Cytotoxicity entry is “Significant activity”. Besides, half-maximal inhibition in the test with Jurkat (IC50) required 7 µM.

Source of the values: ChEMBL document CHEMBL1133412, “Rational design, synthesis and structure-activity relationships of antitumor (E)-2-benzylidene-1-tetralones and (E)-2-benzylidene-1-indanones” (Bioorg Med Chem Lett, 2000).
